Data as given in paper PMC9784833, “Mangosteen Metabolites as Promising Alpha-Amylase Inhibitor Candidates: In Silico and In Vitro Evaluations” (Metabolites, 2022).

Target: T1, alpha-amylase (Homo sapiens, UniProt P04746)
T1 sequence (P04746 16-511): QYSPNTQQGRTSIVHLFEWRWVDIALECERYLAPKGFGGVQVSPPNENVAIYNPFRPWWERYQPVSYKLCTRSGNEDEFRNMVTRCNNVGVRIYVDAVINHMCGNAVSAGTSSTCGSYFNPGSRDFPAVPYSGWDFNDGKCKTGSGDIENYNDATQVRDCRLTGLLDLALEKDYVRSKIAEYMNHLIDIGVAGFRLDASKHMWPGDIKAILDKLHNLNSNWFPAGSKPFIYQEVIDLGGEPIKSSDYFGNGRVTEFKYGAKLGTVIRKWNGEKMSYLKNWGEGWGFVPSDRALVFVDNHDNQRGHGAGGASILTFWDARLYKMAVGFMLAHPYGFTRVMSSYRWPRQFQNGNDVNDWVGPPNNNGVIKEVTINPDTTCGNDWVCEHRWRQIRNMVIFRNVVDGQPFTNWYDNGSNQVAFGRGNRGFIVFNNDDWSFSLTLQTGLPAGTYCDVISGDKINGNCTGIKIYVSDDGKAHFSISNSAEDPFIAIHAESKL
Assay: In vitro alpha-amylase inhibition assay (EnzChek Ultra-Amylase-Assay Kit)

Compound	IC50 [µM]
O=C(c1cccc(O)c1)c1c(O)cc(O)cc1O[C@@H]1O[C@H](CO)[C@@H](O)[C@H](O)[C@H]1O [Compound 3, 2,4,3’-Trihydroxy benzophenone-6-O-β-D-glucopyranoside]	15.8
O=C(c1ccc(O)c(O)c1)c1c(O)cc(O)cc1O[C@@H]1O[C@H](CO)[C@@H](O)[C@H](O)[C@H]1O [Compound 4, Rhodanthenone]	10.4
O=C1c2c(O)cc(O)c([C@@H]3O[C@H](CO)[C@@H](O)[C@H](O)[C@H]3O)c2O[C@H](c2ccc(O)cc2)[C@H]1O [Compound 5, Aromadendrin-8-C-glucoside]	8.3
Oc1cc(O)c2c(c1)O[C@H](c1ccc(O)c(O)c1)[C@H](O)C2 [Compound 6, Epicatechin]	8.9
O=C(c1cc(O)c(O)cc1O)c1c(O)cc(O)cc1OC1OC(CO)C(O)C(O)C1O [Compound 8, 6-O-β-D-Glucopyranosyl-2,4,6,3′,4′,6′-hexahydroxybenzophenone]	7.1
COc1ccc(C2Oc3c(c(O)cc(O)c3C3OC(CO)C(O)C(O)C3O)C(=O)C2O)cc1 [Compound 9, 2R,3R-5,7-Dihydroxy-8-C-β-D-glucopyranosyl-4-methoxy-2,3-dihydroflavon-3-ol]	12.8
CC(C)=CCc1c(O)c(CC=C(C)C)c2oc3c(O)ccc(O)c3c(=O)c2c1O [Compound 17, Gartanin]	21.2
COc1c(O)cc2oc3cc(O)c(/C=C\C(C)(C)O)c(O)c3c(=O)c2c1CC=C(C)C [Compound 28, Mangostanaxanthone IV]	46.5
CC(C)=CCc1c(O)c(O)c(/C=C\C(C)(C)O)c2c(=O)c3c(O)c(/C=C\C(C)(C)O)c(O)cc3oc12 [Compound 29, Mangostanaxanthone V]	11.9
CC(C)=CCc1c(O)cc2oc3cc(O)c(O)c(/C=C\C(C)(C)O)c3c(=O)c2c1O [Compound 31, Mangostanaxanthone VII]	19.5
COc1cc2oc3cc(O)c(OC)c(CC=C(C)C)c3c(=O)c2c(O)c1/C=C\C(C)(C)O [Compound 35, Mangostanaxanthone VIII]	40.6
CC(C)=CCc1c(O)c(C(=O)CC(C)(C)O)c2oc3c(O)ccc(O)c3c(=O)c2c1O [Compound 39, Garcixanthone C]	17.1

Results, then the compound that gave them:

IC50 [µM]	Compound
28.3	COc1c(O)cc2oc3c(CC=C(C)CCC=C(C)C)c(O)cc(O)c3c(=O)c2c1CC=C(C)CCC=C(C)C [Compound 10, Mangostanaxanthone I]
44.1	COc1c(O)cc2oc3cc(O)c(CC=C(C)C)c(O)c3c(=O)c2c1CC=C(C)C [Compound 13, α-Mangostin]
18.8	CC(C)=CCc1c(O)cc2oc3c(CC=C(C)C)c(O)c(O)c(CC=C(C)C)c3c(=O)c2c1O [Compound 15, Garcinone E]
20.4	CC(C)=CCc1c(O)cc2oc3c(CC=C(C)C)c(O)c4c(c3c(=O)c2c1O)C=CC(C)(C)O4 [Compound 23, Tovophyllin A]
21.9	CC(C)=CCc1c(O)cc2oc3c(/C=C\C(C)(C)O)c(O)c(O)c(CC=C(C)C)c3c(=O)c2c1O [Compound 30, Mangostanaxanthone VI]
11.1	CC(C)=CCc1c(O)cc2oc3c(O)c(O)c(O)c(CC=C(C)C)c3c(=O)c2c1O [Compound 40, Garcixanthone D]
